Measured values: US20130064831A1, “IMMUNOTHERAPEUTIC DOSING REGIMENS AND COMBINATIONS THEREOF” (Bristol-Myers Squibb Company, priority 2010, published 2013)

Key:
[1] = tested on: melanoma; conditions: cited from earlier work
[2] = tested on: ovarian or prostate cancer; conditions: some patients with ovarian or prostate cancer; cited from earlier work
[3] = tested on: NSCLC Subjects; test: CA184041 phase II trial: safety, exposure and discontinuation; conditions: in vivo
Method: Blinded Study Drug: Ipilimumab 10 mg/kg or matched placebo administered as a single dose intravenously over 90 minutes every 3 weeks (up to 6 doses) as part of induction. Subjects may receive additional maintenance Ipilimumab/placebo at a dose of 10 mg/kg and administered intravenously over 90 minutes every 12 weeks starting 24 weeks after the first Ipilimumab/placebo dose. Dose reductions were not permitted. […] Dose modifications (reductions as well as delays) are as per product label. PARAPLATIN®: AUC=6 administered as a single dose intravenously over 30 minutes every 3 weeks (up to 6 doses). Dose modifications (reductions as well as delays) are as per product label. Treatment with blinded Ipilimumab (active or placebo) proceeded until immune-related tumor progression as defined by the irRC is observed or intolerable toxicity occurs.
Safety was summarized and listed for all treated subjects using the National Cancer Institute (NCI) Common Terminology Criteria for Adverse Events (CTCAE) version 3.0 by treatment arm for each tumor type. All treatment emergent AEs, drug-related treatment emergent AEs, serious AEs and drug-related SAEs were tabulated using worst grade per NCI CTCAE v3.0 criteria by system, organ, class, and preferred term. The listings by subject were produced for all deaths, all SAEs and all AEs leading to discontinuation of study drug. […]

For “Ipilimumab: fully human IgG1 anti-CTLA-4 monoclonal antibody, CAS 477202-00-9, light/heavy chain variable regions SEQ ID NO:1 and 2”, the tumor regressions ([1]; initial studies in patients with melanoma) is given as “objective durable tumor regressions”, the antitumor activity ([1]; patients with advanced melanoma) is given as “demonstrated antitumor activity” and the serum tumor markers [2] is given as “reductions of serum tumor markers”. The “potentiation of chemotherapy-related toxicity” value [3] was “did not potentiate chemotherapy-related toxicity”.
